Publication PMC6994103 (PLoS Neglected Tropical Diseases, 2020)
Values joined by “and” are separate entries in the source; they are usually repeats but may differ in a detail not shown here. Equal entries are not always repeated.

Assays:
[1] = test system: T. cruzi epimastigotes CL Brener strain; assay: Trypanocidal activity in epimastigotes, CL Brener strain; type: cell-based, Trypanosoma cruzi; conditions: Y vs CL Brener
Description: (§1) VERO cells (5 x10^4 per well) were infected with trypomastigotes (2.5 ×10^5 per well) for 4 h. After this period, the infected cells were washed twice with phosphate-buffered saline (PBS), the MEM medium was replaced, and the cells were kept in culture at 37°C, 5% CO2. In order to obtain intracellular amastigotes, the cells were lysed 4 days after infection using a cell scraper, collected, washed twice with PBS (or MEM) and counted using a hemocytometer. Trypomastigotes were obtained from infected VERO cells as previously described.
Epimastigotes of T. cruzi were cultured as described above, in 24-wells plate at a start density of 0.5 x10^7 cells/mL in BHT medium. Parasites´ growth was evaluated at different concentrations of BZL, CV and CV structural analogues, and parasite proliferation was determined after 48 h. […] Growth was determined by counting in a Neubauer chamber and viability assays by using “Cell Titer 96 Aqueous One Solution Cell Proliferation Assay (MTS)” (Promega, Madison, WI, USA) according to the manufacturer’s instructions. Amastigotes were fixed with methanol, stained and mounted with Vectashield with DAPI (Vector Laboratories, Burlingame, CA, USA), and then the non-lysed cells were counted by using fluorescence microscopy.

[2] = test system: T. cruzi trypomastigotes Y strain; assay: Synergism BZL with LTD-CPH-CFZ in trypomastigotes, Y strain (CompuSyn); type: cell-based, Trypanosoma cruzi
Description: Parasites´ growth was evaluated at different concentrations of BZL, CV and CV structural analogues, and parasite proliferation was determined after 48 h. […] Growth was determined by counting in a Neubauer chamber and viability assays by using “Cell Titer 96 Aqueous One Solution Cell Proliferation Assay (MTS)” (Promega, Madison, WI, USA) according to the manufacturer’s instructions. Amastigotes were fixed with methanol, stained and mounted with Vectashield with DAPI (Vector Laboratories, Burlingame, CA, USA), and then the non-lysed cells were counted by using fluorescence microscopy. Calculations were performed using CompuSyn software (http://combosyn.com) which is based on the median-effect equation [48] and its extension, the combination index.

[3] = test system: T. cruzi epimastigotes Dm28c strain; assay: Trypanocidal activity in epimastigotes, Dm28c strain; type: cell-based, Trypanosoma cruzi
Description: as §1
Epimastigotes of T. cruzi were cultured as described above, in 24-wells plate at a start density of 0.5 x10^7 cells/mL in BHT medium. Parasites´ growth was evaluated at different concentrations of BZL, CV and CV structural analogues, and parasite proliferation was determined after 48 h. Trypanocidal activity in trypomastigotes and amastigotes was performed using 1 x10^6 cells/mL in 96-well plates and incubating at 37°C for 24 h in the presence of the corresponding drug. Growth was determined by counting in a Neubauer chamber and viability assays by using “Cell Titer 96 Aqueous One Solution Cell Proliferation Assay (MTS)” (Promega, Madison, WI, USA) according to the manufacturer’s instructions. Amastigotes were fixed with methanol, stained and mounted with Vectashield with DAPI (Vector Laboratories, Burlingame, CA, USA), and then the non-lysed cells were counted by using fluorescence microscopy.

[4] = Toxicity assay in VERO cells (gentian violet staining); type: cell-based, African green monkey; conditions: African green monkey, VERO cells, 24 h, read-out: viability of the VERO cells, percentage of untreated cells
Description: (§2) VERO cells (African green monkey Kidney, ATCC CCL-81) were cultured in MEM medium supplemented with 10% heat inactivated FCS, 0.15% (w/v) NaHCO3, 100 U/mL penicillin and 100 U/mL streptomycin at 37°C in 5% CO2.
(§3) The toxicity of the compounds was determined in VERO cells by the gentian violet staining assay. Briefly, the cells (1 x10^4 cells/well) were incubated in 96-well plates with the indicated compound or dimethyl sulfoxide (DMSO) as negative control and maintained at 37° C for 24 h. Then the cells were fixed for 15 min, and stained with 0.5% gentian violet. The absorbance was measured at 570 nm. The selectivity index (SI) was calculated for each CV analogue as the ratio between the IC50 obtained in mammalian cells and the IC50 in trypomastigotes. For the combined treatment, the results were presented as percentage of untreated cells.

VERO cells = assay: as above; type: cell-based, African green monkey; conditions: IC50 in VERO cells / IC50 in trypomastigotes (Y strain)
Description: as §2, §3

O=C(Cn1ccnc1[N+](=O)[O-])NCc1ccccc1 [Benznidazole]
fold more sensitive Y vs CL Brener epimastigotes [1]: 1.3 fold
DRI BZL ([2]; BZL 0.50 µM + LTD-CPH-CFZ 3.00 µM (1/10 IC50)): 3.60 ± 0.06
DRI BZL ([2]; BZL 0.50 µM + LTD-CPH-CFZ 6.00 µM (1/5 IC50)): 9.19 ± 1.16
DRI BZL ([2]; BZL 0.50 µM + LTD-CPH-CFZ 7.50 µM (1/4 IC50)): 22.88 ± 3.02
DRI BZL ([2]; BZL 0.50 µM + LTD-CPH-CFZ 10.00 µM (1/3 IC50)): 94.41 ± 15.96
DRI BZL ([2]; BZL 1.00 µM + LTD-CPH-CFZ 3.00 µM (1/10 IC50)): 5.34 ± 0.30
DRI BZL ([2]; BZL 1.00 µM + LTD-CPH-CFZ 6.00 µM (1/5 IC50)): 12.08 ± 1.16
DRI BZL ([2]; BZL 1.00 µM + LTD-CPH-CFZ 7.50 µM (1/4 IC50), listed as BZL): 27 and 27.38 ± 2.15
DRI BZL ([2]; BZL 1.00 µM + LTD-CPH-CFZ 10.00 µM (1/3 IC50)): 95.04 ± 0.83
DRI BZL ([2]; BZL 5.00 µM + LTD-CPH-CFZ 3.00 µM (1/10 IC50)): 2.88 ± 0.54
DRI BZL ([2]; BZL 5.00 µM + LTD-CPH-CFZ 6.00 µM (1/5 IC50)): 7.17 ± 1.62
DRI BZL ([2]; BZL 5.00 µM + LTD-CPH-CFZ 7.50 µM (1/4 IC50)): 14.85 ± 6.05
DRI BZL ([2]; BZL 5.00 µM + LTD-CPH-CFZ 10.00 µM (1/3 IC50)): 32.44 ± 3.71
DRI BZL ([2]; BZL 10.00 µM + LTD-CPH-CFZ 3.00 µM (1/10 IC50)): 1.46 ± 0.23
DRI BZL ([2]; BZL 10.00 µM + LTD-CPH-CFZ 6.00 µM (1/5 IC50)): 6.02 ± 1.15
DRI BZL ([2]; BZL 10.00 µM + LTD-CPH-CFZ 7.50 µM (1/4 IC50)): 33.28 ± 1.72
DRI BZL ([2]; BZL 10.00 µM + LTD-CPH-CFZ 10.00 µM (1/3 IC50)): 35.17 ± 4.38
Dose BZL alone ([2]; same effect (Fa 0.226) as BZL 0.50 µM + LTD-CPH-CFZ 3.00 µM): 1.80 ± 0.03 µM
Dose BZL alone ([2]; same effect (Fa 0.417) as BZL 0.50 µM + LTD-CPH-CFZ 6.00 µM): 4.60 ± 0.58 µM
Dose BZL alone ([2]; same effect (Fa 0.452) as BZL 1.00 µM + LTD-CPH-CFZ 3.00 µM): 5.34 ± 0.30 µM
Dose BZL alone ([2]; same effect (Fa 0.631) as BZL 0.50 µM + LTD-CPH-CFZ 7.50 µM): 11.44 ± 1.51 µM
Dose BZL alone ([2]; same effect (Fa 0.643) as BZL 1.00 µM + LTD-CPH-CFZ 6.00 µM): 12.08 ± 1.16 µM
Dose BZL alone ([2]; same effect (Fa 0.679) as BZL 5.00 µM + LTD-CPH-CFZ 3.00 µM): 14.42 ± 2.70 µM
Dose BZL alone ([2]; same effect (Fa 0.702) as BZL 10.00 µM + LTD-CPH-CFZ 3.00 µM): 14.56 ± 2.33 µM
Dose BZL alone ([2]; same effect (Fa 0.798) as BZL 1.00 µM + LTD-CPH-CFZ 7.50 µM): 27.38 ± 2.15 µM
Dose BZL alone ([2]; same effect (Fa 0.833) as BZL 5.00 µM + LTD-CPH-CFZ 6.00 µM): 35.83 ± 8.10 µM
Dose BZL alone ([2]; same effect (Fa 0.869) as BZL 0.50 µM + LTD-CPH-CFZ 10.00 µM): 47.21 ± 7.98 µM
Dose BZL alone ([2]; same effect (Fa 0.893) as BZL 10.00 µM + LTD-CPH-CFZ 6.00 µM): 60.21 ± 11.50 µM
Dose BZL alone ([2]; same effect (Fa 0.905) as BZL 5.00 µM + LTD-CPH-CFZ 7.50 µM): 74.24 ± 30.25 µM
Dose BZL alone ([2]; same effect (Fa 0.929) as BZL 1.00 µM + LTD-CPH-CFZ 10.00 µM): 95.04 ± 0.83 µM
Dose BZL alone ([2]; same effect (Fa 0.976) as BZL 5.00 µM + LTD-CPH-CFZ 10.00 µM): 162.18 ± 18.57 µM
Dose BZL alone ([2]; same effect (Fa 0.988) as BZL 10.00 µM + LTD-CPH-CFZ 7.50 µM): 332.83 ± 17.17 µM
Dose BZL alone ([2]; same effect (Fa 0.988) as BZL 10.00 µM + LTD-CPH-CFZ 10.00 µM): 351.76 ± 43.93 µM
fold more resistant Dm28c vs CL Brener epimastigotes ([3]; Dm28c vs CL Brener): 1.2 fold
fold more sensitive Y vs Dm28c epimastigotes ([3]; Y vs Dm28c): 1.6 fold
viability at 24 h, 5 µM ([4]; BZL 5.0 µM + LTD-CPH-CFZ 0 µM): 96.6%
viability at 24 h, 10 µM ([4]; BZL 10.0 µM + LTD-CPH-CFZ 0 µM): 97.5%
viability at 24 h, 50 µM ([4]; BZL 50.0 µM + LTD-CPH-CFZ 0 µM): 95.7%
viability at 24 h, 100 µM ([4]; BZL 100.0 µM + LTD-CPH-CFZ 0 µM): 92.9%
Selectivity Index (VERO cells): >67
